Experimental data taken from ChEMBL document CHEMBL1145960, “Substituted pyrazolopyridopyridazines as orally bioavailable potent and selective PDE5 inhibitors: potential agents for treatment of erectile dysfunction” (J Med Chem, 2003).

Assays:
[1] = target: cGMP-specific 3',5'-cyclic phosphodiesterase (Homo sapiens, UniProt O76074); assay: Inhibition of Phosphodiesterase 5 from human platelets
[2] = Relative inhibition of PDE1 from bovine heart and PDE5 from human platelets
[3] = Relative inhibition of PDE2 from rat kidney and PDE5 from human platelets
[4] = target: Phosphodiesterase 3 and 5 (PDE3 and PDE5) (Homo sapiens) (UniProt O76074+Q14432+Q13370); assay: Relative inhibition of PDE3 and PDE5 from human platelets
[5] = Relative inhibition of PDE4 from rat kidney and PDE5 from human platelets
[6] = Relative inhibition of PDE6 from bovine retina and PDE5 from human platelets
[7] = Half life of compound was determined in male dogs; assay type: ADME, organism-based, Canis lupus familiaris; settings: dog, in vivo
[8] = Half life of compound was determined in male rats; assay type: ADME, organism-based; settings: rat, in vivo
[9] = Bioavailability in dog (male); assay type: ADME, organism-based, Canis lupus familiaris; settings: in vivo
[10] = Bioavailability in rat (male); assay type: ADME, organism-based; settings: in vivo
[11] = Relaxant effect mediated by PDE5 inhibition in rabbit corpus cavernosum; assay type: functional, tissue-based, Oryctolagus cuniculus
Oryctolagus cuniculus = organism: Oryctolagus cuniculus; assay: Increased mean blood pressure in rabbit corpus carvenosum; assay type: functional

Structure (SMILES) | IC50 [1] | Ratio [2] | Ratio [3] | Ratio [4] | Ratio [5] | Ratio [6] | half-life [7] | half-life [8] | bioavailability [9] | bioavailability [10] | EC50 [11] | ED50 (Oryctolagus cuniculus)
CCn1ncc2c3c(NCc4ccc(OC)c(Cl)c4)nnc(NCc4ccncc4)c3cnc21 | 0.1 nM | > 10000 | > 10000 | > 10000 | 4000 | 210 | – | – | – | – | – | –
CCn1ncc2c3c(NCc4ccc(OC)c(Cl)c4)nnc(-n4cnc(C(=O)NC)c4)c3cnc21 | 0.3 nM | > 10000 | > 10000 | – | > 10000 | 150 | 2 h | 1.2 h | 42% | 29% | 13 nM | 0.1 µmol/kg
CCn1ncc2c3c(NCc4ccc(OC)c(Cl)c4)nnc(N4CCC(C(=O)O)CC4)c3cnc21 | 0.03 nM | > 10000 | > 10000 | > 10000 | 7500 | 30 | – | – | – | – | – | –
CCn1ncc2c(NCc3ccc(OC)c(Cl)c3)c(C(=O)NCc3ccncc3)cnc21 | – | 6400 | 9200 | – | 600 | 47 | – | – | – | – | – | –
CCCc1nn(C)c2c(=O)[nH]c(-c3cc(S(=O)(=O)N4CCN(C)CC4)ccc3OCC)nc12 | – | – | – | – | – | – | – | – | – | – | 19 nM | 0.11 µmol/kg
CCn1ncc2c3c(NCc4ccc(OC)c(Cl)c4)nnc(N4CCC(O)CC4)c3cnc21 | – | 5700 | 4000 | 7500 | 300 | 80 | – | – | – | – | – | –
